Test system: healthy subjects
Assay: Phase 1 healthy volunteer study, single oral dose: treatment-emergent adverse events
Type: in vivo, human
Conditions: 25 mg
Protocol: A Phase 1 randomized, double-blind, placebo-controlled study to evaluate the effect of psilocybin on cognitive and emotional processing as compared to placebo in healthy volunteers was conducted. The study investigated the short-term (Day 7) and long-term (Day 28) effects of moderate (10 mg) and high doses (25 mg) of psilocybin on key domains of cognition, such as episodic memory, attention, working and spatial memory, social cognition and elements of executive function, including cognitive flexibility.
90 healthy subjects were studied. Approximately 50% of the subjects were psilocybin-naïve. For subjects with prior psilocybin experience, the last exposure was at least 1 year prior to the signing of the Informed Consent Form (ICF). Approximately 50% of the subjects were female. Subjects were stratified by sex and age (18-35 years old; >35 years old).
Each subject was assigned 1 treatment bottle containing 5 capsules packaged in a double-blind fashion, depending on the randomized treatment arm, the bottle contained one of the following: • a. Psilocybin 10 mg: 2×5-mg oral psilocybin capsules plus 3× placebo capsules • b. Psilocybin 25 mg: 5×5-mg oral psilocybin capsules • c. Placebo: 5× placebo capsules
Each 5-mg oral psilocybin capsule comprised 5 mg crystalline psilocybin in the form of Polymorph A, 12.5 mg of SMCC 50, 79.5 mg of SMCC 90, 1 mg sodium starch glycolate, 1 mg colloidal silicon dioxide, and 1 mg sodium stearyl fumarate
Adverse events: Throughout the course of the study, all AEs were monitored and recorded. Each AE was classified according to the following criteria: • i. […] Moderate: The AE produces some impairment of functioning, but is not hazardous to the subject's health. • iii. Severe: The AE produces significant impairment of functioning or incapacitation and is a definite hazard to the subject's health.
Selected Adverse Events of included: • (a) Euphoric mood • (b) Dissociative disorder • (c) Hallucination • (d) Psychotic disorder • (e) Cognitive disorder • (f) Disturbance in attention • (g) Altered mood • (h) Impairment of psychomotor skills • (i) Inappropriate affect • (j) Overdose • (k) Intentional product misuse • (l) Illusion
For example, drug-induced hepatitis that resolved without evidence of hepatic failure would not be considered life threatening even though drug-induced hepatitis can be fatal. • (c) Inpatient hospitalization or prolongation of existing hospitalization. • (d) Persistent or significant disability/incapacity. • (e) Congenital anomaly/birth defect in the offspring of a subject who received psilocybin. • (f) Other: Important medical events that may not result in death, be life-threatening, or require hospitalization, may be considered an SAE when, based upon appropriate medical judgment, they may jeopardize the subject and may require medical or surgical intervention to prevent one of the outcomes listed in this definition. […] Visits:
Visit 3 (V3): Drug Administration (Day 0): The subject was asked to eat a light breakfast at least two hours prior to coming to the clinic for study drug administration. On Day 0 (V3), the subject underwent the SSTS, had vital signs obtained, medications reviewed, AEs recorded and eligibility reviewed prior to being randomized to study drug. The study drug was administered to up to six subjects simultaneously in individual beds separated by a curtain. The subject was invited to put on eyeshades and headphones, lie down and listen to calming music for the rest of the session (six hours). The subject was supported 1:1 with a chaperone and supervised by the study psychiatrist and lead therapist.
Recording of adverse events and prior/concomitant medication was performed at each visit.
During administration of psilocybin, each subject received one on one support from a trained assisting therapist and each dosing session was supervised by a study psychiatrist and a lead therapist. […]

CN(C)CCc1c[nH]c2cccc(OP(=O)(O)O)c12 [psilocybin]
7: General disorders and administration site conditions, worst severity Moderate: Events | Illusion, worst severity Severe: Events | Mood altered, worst severity Moderate: Events
25: Mood altered: Events
29: Any severe TEAE: Events
6 (20.0): General disorders and administration site conditions, worst severity Moderate: N (%) | Mood altered, worst severity Moderate: N (%)
6: Emotional disorder: Events
13: Hallucination, visual, worst severity Moderate: Events
9: Mood altered, worst severity Severe: Events
0: Emotional disorder, worst severity Severe: Events | Emotional disorder, worst severity Severe: N (%) | Euphoric mood, worst severity Severe: Events | Euphoric mood, worst severity Severe: N (%) | Fatigue, worst severity Severe: Events | Fatigue, worst severity Severe: N (%) | Feeling abnormal, worst severity Mild: Events | Feeling abnormal, worst severity Mild: N (%) | Feeling abnormal, worst severity Moderate: Events | Feeling abnormal, worst severity Moderate: N (%) | Feeling abnormal, worst severity Severe: Events | Feeling abnormal, worst severity Severe: N (%) | Feeling abnormal: Events | Feeling abnormal: N (%) | Gastrointestinal disorders, worst severity Severe: Events | Gastrointestinal disorders, worst severity Severe: N (%) | Hallucination, auditory, worst severity Severe: Events | Hallucination, auditory, worst severity Severe: N (%) | Hallucination, worst severity Mild: Events | Hallucination, worst severity Mild: N (%) | Hallucination, worst severity Severe: Events | Hallucination, worst severity Severe: N (%) | Headache, worst severity Severe: Events | Headache, worst severity Severe: N (%) | Hypoaesthesia, worst severity Moderate: Events | Hypoaesthesia, worst severity Moderate: N (%) | Hypoaesthesia, worst severity Severe: Events | Hypoaesthesia, worst severity Severe: N (%) | Infections and infestations, worst severity Moderate: Events | Infections and infestations, worst severity Moderate: N (%) | Infections and infestations, worst severity Severe: Events | Infections and infestations, worst severity Severe: N (%) | Investigations, worst severity Moderate: Events | Investigations, worst severity Moderate: N (%) | Investigations, worst severity Severe: Events | Investigations, worst severity Severe: N (%) | Musculoskeletal and connective tissue disorders, worst severity Severe: Events | Musculoskeletal and connective tissue disorders, worst severity Severe: N (%)
16: Headache: Events
26: Illusion: Events
5: Emotional disorder, worst severity Moderate: Events | Fatigue, worst severity Moderate: Events | Gastrointestinal disorders: Events | Hallucination, visual, worst severity Severe: Events | Headache, worst severity Moderate: Events
3: Euphoric mood, worst severity Mild: Events | Fatigue, worst severity Mild: Events | Hallucination, auditory, worst severity Moderate: Events | Hallucination, visual, worst severity Mild: Events | Mental fatigue: Events | Mood altered, worst severity Mild: Events | Musculoskeletal and connective tissue disorders, worst severity Mild: Events | Nausea: Events
10: Any severe TEAE: N (%) | Headache, worst severity Mild: Events
24: Nervous system disorders, worst severity Mild: Events
18: General disorders and administration site conditions: Events
8: Euphoric mood: Events | Fatigue: Events | General disorders and administration site conditions, worst severity Mild: Events
12: Illusion, worst severity Moderate: Events
1: Emotional disorder, worst severity Mild: Events | Feeling of relaxation: Events | Gastrointestinal disorders, worst severity Moderate: Events | General disorders and administration site conditions, worst severity Severe: Events | Hallucination, auditory, worst severity Mild: Events | Investigations, worst severity Mild: Events | Investigations: Events | Musculoskeletal and connective tissue disorders, worst severity Moderate: Events
(33.3) %: Any severe TEAE: % of subjects
3 (10.0): Euphoric mood, worst severity Mild: N (%) | Fatigue, worst severity Mild: N (%) | Hallucination, auditory, worst severity Moderate: N (%) | Hallucination, visual, worst severity Mild: N (%) | Hypoaesthesia, worst severity Mild: N (%) | Hypoaesthesia: N (%) | Illusion, worst severity Mild: N (%) | Mental fatigue: N (%) | Musculoskeletal and connective tissue disorders: N (%) | Nausea: N (%)
4: Euphoric mood, worst severity Moderate: Events | Gastrointestinal disorders, worst severity Mild: Events | Hallucination, auditory: Events | Hallucination, tactile: Events | Hypoaesthesia, worst severity Mild: Events | Hypoaesthesia: Events | Illusion, worst severity Mild: Events | Infections and infestations, worst severity Mild: Events | Infections and infestations: Events | Musculoskeletal and connective tissue disorders: Events
2: Hallucination, worst severity Moderate: Events | Hallucination: Events
22: Hallucination, visual: Events

Reference: patent US11865126B2, “Method for treating anxiety disorders, headache disorders, and eating disorders with psilocybin” (priority 2019, dated 2024)
